Laboratory results from ChEMBL document CHEMBL1155593, “Bioactive sesquiterpenes from the basidiomycete Resupinatus leightonii” (J Nat Prod, 2000).
In brackets after ≈: the same amount, converted by molar mass. Activity calls are given as the source filed them. The rule behind the calls is not given here.

Legend:
Pyricularia grisea [1] = assay: Inhibition of chlorophenylthio-cAMP-induced appressorium formation in germinating conidia of Magnaporthe grisea P1; type: functional, organism-based
Pyricularia grisea [2] = assay: Inhibition of 1,16-hexadecanediol-induced appressorium formation in germinating conidia of Magnaporthe grisea P1; type: functional, organism-based
HL-60 = assay: Cytotoxicity against human HL60 cells; type: functional, cell-based
Jurkat = assay: Cytotoxicity against human Jurkat cells; type: functional, cell-based
HeLa = assay: Cytotoxicity against human HeLa S3 cells; type: functional, cell-based
Pyricularia grisea [3] = assay: Inhibition of hydrophobic gel bonded surface-induced appressorium formation in germinating conidia of Magnaporthe grisea P1; type: functional, organism-based
[4] = Cytotoxicity against mouse B16-F1cells; type: functional, cell-based; conditions: B16-F1

SMILES | IC50 (Pyricularia grisea [1]) [µg/mL] | Activity (Pyricularia grisea [2]) | IC50 (HL-60) [µg/mL] | IC50 (Jurkat) [µg/mL] | IC50 (HeLa) [µg/mL] | Activity (Pyricularia grisea [3]) | IC50 [4] [µg/mL]
C=C[C@@](C)(O)CC/C=C(\C)CC[C@H](O)C(C)(C)O | 10 (≈ 39 µM) | inactive | 5 (≈ 19.5 µM) | 20 (≈ 78 µM) | 75 (≈ 293 µM) | inactive | 75 (≈ 293 µM)
C/C1=C\[C@@H](O)C/C(C)=C/[C@H](O)[C@H]([C@@H](C)CO)CC1 | 50 (≈ 197 µM) | inactive | 10 (≈ 39.3 µM) | 20 (≈ 78.6 µM) | > 100 | inactive | > 100
